Source: patent US20150065436A1, “INHIBITING INTERACTION BETWEEN HIF-1ALPHA AND p300/CBP WITH HYDROGEN BOND SURROGATE-BASED HELICES” (UNIVERSITY OF SOUTHERN CALIFORNIA, priority 2013, published 2015)

How the values were obtained:
p300-CH1 = target: T1, p300-CH1 (Homo sapiens, UniProt Q09472); experiment: Tryptophan fluorescence binding assay; settings: for Kd: 15N-labeled p300 CH1 domain, Trp403 fluorescence, read-out: dissociation constant, Kd
T1 construct: human p300 CH1 domain (amino acid residues 323-423); GST (cleaved yes); made in house; host or cells: E. coli BL21 (DE3)
Text: The DNA sequence of human p300 CH1 domain ([…]) was designed as an insert and subcloned into a pUC57 plasmid by Genscript, Inc. After transformation of the plasmid in JM109 bacteria (Promega), the gene sequence was subcloned into BamHI and EcoRI restriction sites of pGEX-4T-2 expression vector (Amersham). The pGEX 4T-2-p300 fusion vector was transformed into BL21 (DE3)-competent E. coli (Novagen) in M9 minimal media with ^15NH4Cl as the main nitrogen source. Protein production was induced with 1 mM IPTG at O.D. 600 of 1 for 16 hours at 15° C. Production of the desired p300-CH1-GST fusion product was verified by SDS-PAGE. Bacteria were harvested and resuspended in the lysis buffer with 20 mM Phosphate buffer (Research Products International, Corp.), 100 μM DTT (Fisher), 100 μM ZnSO4 (Sigma), 0.5% TritonX 100 (Sigma), […] Pepstatin A (Research Products International, Corp.), […] Leupeptin A (Research Products International, Corp.), 500 μM PMSF (Sigma), and 0.5% glycerol at pH 8.0. Pellets were lysed by sonication and centrifuged at 4° C., 20,000 rpm, for 20 minutes. Fusion protein was collected from the bacterial supernatant and purified by affinity chromatography using glutathione Sepharose 4B beads (Amersham) prepared according to the manufacturer's directions. GST-tag was cleaved by thrombin and protein was eluted from resin. […] Spectra were recorded on a QuantaMaster 40 spectrofluorometer (Photon Technology International) in a 10 mm quartz fluorometer cell at 25° C. with 4 nm excitation and 4 nm emission slit widths from 200 to 400 nm at intervals of 1 nm/s. Samples were excited at 295 nm and fluorescence emission was measured from 200-400 nm and recorded at 335 nm. Peptide stock solutions were prepared in DMSO. Aliquots containing 1 μL DMSO stocks were added to 400 μL of 1 μM p300-CH1 in 50 mM Tris and 100 mM NaCl (pH 8.0). After each addition, the sample was allowed to equilibrate for 5 minutes before UV analysis. Background absorbance and sample dilution effects were corrected by titrating DMSO into p300-CH1 in an analogous manner. Final fluorescence is reported as the absolute value of [(F1-F0)/F1]*100, where F1 is the final fluorescence upon titration and F0 is the fluorescence of the blank DMSO titration. EC50 values for each peptide were determined by fitting the experimental data to a sigmoidal dose-response nonlinear regression model on GraphPad Prism 5.0, and the dissociation constants, KD, were obtained from equation (1) […] The affinity of peptides for the ^15N-labeled p300 CH1 domain was evaluated using tryptophan fluorescence spectroscopy. […] The binding affinity of HIF-1αC-TAD to CH1 in this assay is consistent with that obtained from a fluorescence polarization assay using fluorescein-labeled HIF-1αC-TAD (FIG. 11 and FIG. 12) and those using isothermal titration microcalorimetry.

[1] = test system: hypoxia-inducible promoter activity in MDA-MB-231-HRE-Luc cells; experiment: Luciferase-based HRE promoter activity assay; settings: 50 μM, hypoxia by GasPak EZ pouch
Protocol: MDA-MB-231-HRE-Luc cells were grown in high glucose DMEM supplemented with 10% fetal bovine serum and 0.4 g/L geneticin (RPI). Hypoxia was mimicked with desferrioxamine mesylate (DFO, Sigma) at a concentration of 300 μM or by GasPak EZ pouch (BD Biosciences). Cell growth and morphology were monitored by phase-contrast microscopy.
MDA-MB-231-HRE-Luc cells were plated in 24-well plates (BD Falcon) at a seeding density of 35,000 cells/mL. Cells were allowed to adhere and form a monolayer before adding the compounds (˜70% confluence). […] All samples contained a final concentration of 0.1% DMSO; vehicle samples were treated with cell culture media containing 0.1% DMSO. Cells were incubated for 6 hours at 37° C. and 5% CO2 and then hypoxia was induced by placing the cells into GasPak EZ pouch for another 18 hours. The lysates were isolated by using cell culture lysis reagent (Promega). Prior to collecting cell lysate, halt protease inhibitor cocktail (Thermo Scientific) was added to the cell culture lysis reagent in order to ensure the stability of proteins. Cell lysates were collected into low-adhesion pre-chilled Eppendorf tubes (USA Scientific) and centrifuged at 13,000 rpm for 5 minutes at 4° C. Supernatant was collected into another set of pre-chilled Eppendorf tubes and the pellet was discarded. Luciferase assay reagent (100 μL, Promega) was added to 20 μL of cell lysate and luminescence intensity was measured by Turner TD-20e luminometer. The results were normalized to total protein concentration determined by BCA assay. Briefly, 10 μL of cell lysate was added to 200 μL of BCA reagent. Absorbance was measured at 562 nm using a BioTek Synergy 2 microplate reader and normalized to BSA solutions at a concentration range of 125 μg/mL to 2000 μg/mL as standards.

T1 sequence (Q09472 323-423): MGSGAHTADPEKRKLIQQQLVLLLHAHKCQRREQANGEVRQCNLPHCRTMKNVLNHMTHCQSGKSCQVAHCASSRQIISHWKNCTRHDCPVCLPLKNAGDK

Row | Structure (SMILES) | Kd (p300-CH1) [nM] | binding affinity relative to HBS 1 (p300-CH1; CH1 domain, compared with HBS 1) | reduction of luciferase expression [1] | increase in binding affinity by stabilization of the peptide conformation (p300-CH1; HBS 1 versus unconstrained peptide 3) [fold]
1 | CC(C)C[C@@H]1NC(=O)[C@H](CCC(=O)O)NC(=O)CCC=CCN([C@@H](C)C(=O)N[C@@H](CCCNC(=N)N)C(=O)N[C@@H](C)C(=O)N[C@@H](C)C(=O)N[C@@H](CC(=O)O)C(=O)N[C@@H](CCC(N)=O)C(N)=O)C1=O [HBS 2, XELA*RAADQ-NH2] | 2820 ± 140 | four-fold weaker | less effective | 
2 | CC(C)C[C@H](NC(=O)[C@H](C)NC(=O)[C@H](CCCNC(=N)N)NC(=O)[C@H](C)N1CC=CCCC(=O)N[C@@H](CCC(=O)O)C(=O)N[C@@H](CC(C)C)C1=O)C(=O)N[C@@H](CC(=O)O)C(=O)N[C@@H](CCC(N)=O)C(N)=O [HBS 1, XELA*RALDQ-NH2] | 690 ± 25 |  | 25% | 9
